Measurements: ChEMBL document CHEMBL1201862, “PubChem BioAssay data set” (2004)
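Each compound was tested at five concentrations against cells in 96-well plates for 48 hours. Here, GI50 denotes the concentration required for 50% inhibition of growth.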 Calls of active or inactive are those of the source. Cut-off read from the data, not from the text of the source: active = GI50 up to about 1.1 µM and inactive = higher.

Tests used:
Assay in all cases: NCI anticancer screen, dose series, 48 h
COLO 205 = tested on: COLO 205
DU-145 = tested on: DU-145
HCC 2998 = tested on: HCC 2998
HCT-116 = tested on: HCT-116
HL-60 = tested on: HL-60
HOP-92 = tested on: HOP-92
Hs-578T = tested on: Hs-578T
IGROV-1 = tested on: IGROV-1
LOX IMVI = tested on: LOX IMVI
Malme-3M = tested on: Malme-3M
NCI-H522 = tested on: NCI-H522
OVCAR-8 = tested on: OVCAR-8
PC-3 = tested on: PC-3
RPMI-8226 = tested on: RPMI-8226
SK-MEL-28 = tested on: SK-MEL-28
SK-MEL-5 = tested on: SK-MEL-5
SK-OV-3 = tested on: SK-OV-3
SN12C = tested on: SN12C
T47D = tested on: T47D
TK-10 = tested on: TK-10

Compound | GI50 (COLO 205) | GI50 (DU-145) | GI50 (HCC 2998) | GI50 (HCT-116) | GI50 (HL-60) | GI50 (HOP-92) | GI50 (Hs-578T) | GI50 (IGROV-1) | GI50 (LOX IMVI) | GI50 (Malme-3M) | GI50 (NCI-H522) | GI50 (OVCAR-8) | GI50 (PC-3) | GI50 (RPMI-8226) | GI50 (SK-MEL-28) | GI50 (SK-MEL-5) | GI50 (SK-OV-3) | GI50 (SN12C) | GI50 (T47D) | GI50 (TK-10)
COC1=CC(=O)c2c(cc(COP(=O)(N(C)CCBr)N(C)CCBr)n2C)C1=O | 0.865 µM (active) | < 0.0235 µM (active) | 0.494 µM (active) | 0.0542 µM (active) | 0.0543 µM (active) | 0.69 µM (active) | 1.77 µM (inactive) | 2.31 µM (inactive) | < 0.0238 µM (active) | 0.906 µM (active) | 0.281 µM (active) | 0.241 µM (active) | 6.82 µM (inactive) | 0.385 µM (active) | 1.59 µM (inactive) | 1.07 µM (active) | 0.918 µM (active) | < 0.0272 µM (active) | 0.55 µM (active) | 0.247 µM (active)
Cc1cc(S(=O)(=O)/N=C(\NN)Nc2ccc(Cl)cc2)c(S)cc1Cl | 13.4 µM (inactive) | 4.35 µM (inactive) | 11.2 µM (inactive) | 3.03 µM (inactive) | 6.27 µM (inactive) | 34.4 µM (inactive) | 1.17 µM (inactive) | 3.54 µM (inactive) | 13.9 µM (inactive) | 16.9 µM (inactive) | 16 µM (inactive) | 12.4 µM (inactive) | 21.2 µM (inactive) | 12.3 µM (inactive) | 21.6 µM (inactive) | 4.94 µM (inactive) | 23 µM (inactive) | 22.8 µM (inactive) | 3.4 µM (inactive) | 21.3 µM (inactive)
C=C1C(=O)O[C@@H]2[C@H]1C[C@H](I)[C@@]1(C)CC[C@H](O1)[C@](C)(I)CCCC(C)[C@@H]2O (stereo not given in full) | 2.21 µM (inactive) | 6.19 µM (inactive) | 12.2 µM (inactive) | 2.88 µM (inactive) | 1.31 µM (inactive) | 1.54 µM (inactive) | 14.6 µM (inactive) | 2.01 µM (inactive) | 1.32 µM (inactive) | 2.48 µM (inactive) | 0.311 µM (active) | 2.96 µM (inactive) | 6.03 µM (inactive) | 2.61 µM (inactive) | 6.11 µM (inactive) | 3.29 µM (inactive) | 16.6 µM (inactive) | 4.98 µM (inactive) | 3.79 µM (inactive) | 1.75 µM (inactive)
CC(Oc1ccc(Cl)cc1Cl)C(=O)NN1C(=O)CC(=O)N(c2ccccc2)C1=S (stereo not given) | 33.7 µM (inactive) | 53.3 µM (inactive) | 63.4 µM (inactive) | 35.5 µM (inactive) | 0.527 µM (active) | 24.9 µM (inactive) | > 100 µM (inactive) | 55.3 µM (inactive) | 55 µM (inactive) | > 100 µM (inactive) | 31.5 µM (inactive) | 50.2 µM (inactive) | 40.5 µM (inactive) | 30.7 µM (inactive) | 98.6 µM (inactive) | 47.4 µM (inactive) | > 100 µM (inactive) | 52.4 µM (inactive) | 43.2 µM (inactive) | > 100 µM (inactive)
O=C1Oc2ccccc2C1C/C(=N\Nc1ccccc1)c1ccccc1O (stereo not given) | 15 µM (inactive) | 40.7 µM (inactive) | 34.8 µM (inactive) | 28.4 µM (inactive) | 34.2 µM (inactive) | 25.6 µM (inactive) | 74.5 µM (inactive) | 17 µM (inactive) | 11.5 µM (inactive) | 41.3 µM (inactive) | 38.2 µM (inactive) | 32.4 µM (inactive) | 30.2 µM (inactive) | 45.2 µM (inactive) | 33.7 µM (inactive) | 33.9 µM (inactive) | 62.1 µM (inactive) | 42 µM (inactive) | 11.3 µM (inactive) | 48.9 µM (inactive)
C/C(=N/NC(=S)Nc1ccccc1Cl)c1ccccn1 | < 0.0162 µM (active) | 1.06 µM (active) | 2.98 µM (inactive) | < 0.0129 µM (active) | < 0.0113 µM (active) | 1.03 µM (active) | 8.53 µM (inactive) | < 0.0137 µM (active) | 0.01 µM (active) | 0.429 µM (active) | 1.11 µM (active) | 0.0206 µM (active) | < 0.0143 µM (active) | < 0.0149 µM (active) | 4.06 µM (inactive) | 0.0753 µM (active) | 0.043 µM (active) | 0.129 µM (active) | < 0.0371 µM (active) | 0.113 µM (active)
CC(=O)C1=C(C)N(c2ccc(C)cc2)C2(O)C3=C(C(=O)c4ccccc4C3=O)C(O)=CC12Cl (stereo not given) | 27.5 µM (inactive) | 24.7 µM (inactive) | 12.7 µM (inactive) | 30.8 µM (inactive) | 4.31 µM (inactive) | 43.8 µM (inactive) | 6.28 µM (inactive) | 11.1 µM (inactive) | 12.1 µM (inactive) | 10.5 µM (inactive) | 6.14 µM (inactive) | 14.1 µM (inactive) | 8.85 µM (inactive) | 6.5 µM (inactive) | 10.2 µM (inactive) | 6.92 µM (inactive) | 55.1 µM (inactive) | 17 µM (inactive) | 26.7 µM (inactive) | 28.4 µM (inactive)
CNCC(SC)c1ccc(O)c(O)c1 (stereo not given) | 17.1 µM (inactive) | 17.9 µM (inactive) | 16.7 µM (inactive) | 20.7 µM (inactive) | 12.9 µM (inactive) | 20.4 µM (inactive) | 66.1 µM (inactive) | 34.3 µM (inactive) | 24.7 µM (inactive) | 17.5 µM (inactive) | 13.7 µM (inactive) | 19.2 µM (inactive) | 69.2 µM (inactive) | 21.1 µM (inactive) | 53.2 µM (inactive) | 52.8 µM (inactive) | > 100 µM (inactive) | 21.5 µM (inactive) | 23.6 µM (inactive) | 19.1 µM (inactive)
CCCSc1ccc2[nH]c(N3C(=O)/C(=C/c4ccc(SC)cc4)N=C3c3ccccc3)cc2c1 | 14.2 µM (inactive) | > 50 µM (inactive) | 14.1 µM (inactive) | 19.9 µM (inactive) | 9.14 µM (inactive) | > 50 µM (inactive) | 28.1 µM (inactive) | 29.2 µM (inactive) | 35.7 µM (inactive) | 40.6 µM (inactive) | 16.1 µM (inactive) | > 44.6 µM (inactive) | 25.9 µM (inactive) | 0.242 µM (active) | 34.3 µM (inactive) | 10.7 µM (inactive) | 41.5 µM (inactive) | > 40.5 µM (inactive) | 32.1 µM (inactive) | 29 µM (inactive)
N#Cc1nc(C#N)n(C(=O)c2ccccc2)c1NC(=O)c1ccccc1 | > 100 µM (inactive) | > 100 µM (inactive) | > 100 µM (inactive) | > 100 µM (inactive) | > 100 µM (inactive) | > 100 µM (inactive) | > 100 µM (inactive) | > 100 µM (inactive) | > 100 µM (inactive) | > 100 µM (inactive) | > 100 µM (inactive) | > 100 µM (inactive) | > 100 µM (inactive) | > 100 µM (inactive) | > 100 µM (inactive) | > 100 µM (inactive) | > 100 µM (inactive) | > 100 µM (inactive) | > 100 µM (inactive) | > 100 µM (inactive)
N#CC1=C(N)OC2=C(CCCc3ccc([N+](=O)[O-])cc32)C1c1ccc(Cl)cc1 (stereo not given) | 5.35 µM (inactive) | 8.51 µM (inactive) | 8.02 µM (inactive) | 3.3 µM (inactive) | 1.89 µM (inactive) | 37 µM (inactive) | 17.1 µM (inactive) | 8.71 µM (inactive) | 4.6 µM (inactive) | 11.3 µM (inactive) | 6.41 µM (inactive) | 6.58 µM (inactive) | 3.94 µM (inactive) | 4.33 µM (inactive) | 25.8 µM (inactive) | 4.38 µM (inactive) | 13.7 µM (inactive) | 2.74 µM (inactive) | 3.78 µM (inactive) | 10.6 µM (inactive)
CC(O)CN1c2ccccc2Sc2ccc(Cl)cc21 (stereo not given) | > 10 µM (inactive) | > 10 µM (inactive) | > 10 µM (inactive) | > 10 µM (inactive) | > 10 µM (inactive) | > 10 µM (inactive) | > 10 µM (inactive) | > 10 µM (inactive) | > 10 µM (inactive) | > 10 µM (inactive) | > 10 µM (inactive) | > 10 µM (inactive) | > 10 µM (inactive) | > 10 µM (inactive) | > 10 µM (inactive) | > 10 µM (inactive) | > 10 µM (inactive) | > 10 µM (inactive) | > 10 µM (inactive) | > 10 µM (inactive)
NNC(=O)c1ccccc1Nc1nc(-c2cccs2)nc2ccc(Br)cc12 | > 100 µM (inactive) | > 100 µM (inactive) | 90.4 µM (inactive) | 70 µM (inactive) | 71.3 µM (inactive) | > 100 µM (inactive) | > 100 µM (inactive) | > 100 µM (inactive) | 44.9 µM (inactive) | > 100 µM (inactive) | > 100 µM (inactive) | 55 µM (inactive) | 44.4 µM (inactive) | > 100 µM (inactive) | 45.5 µM (inactive) | 74 µM (inactive) | > 100 µM (inactive) | 37.2 µM (inactive) | 47.8 µM (inactive) | > 100 µM (inactive)
CC(=O)O[C@H]1C(=O)[C@@]2(C)[C@H]([C@H](OC(=O)c3ccccc3)[C@]3(O)C[C@H](OC(=O)[C@H](O)[C@@H](NC(=O)c4cccc(N=[N+]=[N-])c4)c4ccccc4)C(C)=C1C3(C)C)[C@]1(OC(C)=O)CO[C@@H]1C[C@@H]2O | 0.00301 µM (active) | 0.0208 µM (active) | 0.0634 µM (active) | < 0.0025 µM (active) | < 0.0025 µM (active) | 0.0109 µM (active) | < 0.0025 µM (active) | 0.00679 µM (active) | 0.00789 µM (active) | 0.00711 µM (active) | 0.00307 µM (active) | 0.00798 µM (active) | 0.0047 µM (active) | < 0.0025 µM (active) | 0.425 µM (active) | 0.00507 µM (active) | 0.0122 µM (active) | 0.0164 µM (active) | 0.0338 µM (active) | 0.117 µM (active)
